Test results as given in patent US8956641B2, “Alpha adrenergic receptor agonists for treatment of inflammatory diseases” (Warsaw Orthopedic, Inc., priority 2008, dated 2015).

Tested on: Rat Chronic Constriction Injury Model (neuropathic pain)
Settings: clonidine subcutaneously 0.02 mg/kg/day; FIG. 4
Source text: The inventors evaluated the efficacy of a five Month Clonidine/Polymer Drug Depot in the Rat Chronic Constriction Injury Model. The animal model was the Bennett Model (Wistar rat). The purpose: To determine whether a five month polymer clonidine-eluting depot can improve pain associated behavioral responses in a rat model of neuropathic pain.
Experimental Design: Four loose chromic gut ligatures, 1 mm apart, were tied around the common sciatic nerve at mid-thigh. Each animal received treatment of test or control article-according to the dosing described in Table 5.
The inventors have conducted the present study for a period of 64 days and have employed the following two tests: (1) the Hargreaves test; and (2) the von Frey test. The Hargreaves Tests of Thermal Hyperalgesia were conducted on days 7, 14, 21, 28, 35, 42, 49, 56 and 63. The von Frey monofilament test of mechanical allodynia (performed the day following Thermal testing) were conducted on days-8, 15, 22, 29, 36, 43, 50, 57 and 64.

## Clc1cccc(Cl)c1N=C1NCCN1 [clonidine, 2,6-dichloro-N2-imidazolidinyldenebenzenamine]
  pain behavioral response (percentage of baseline) for mechanical allodynia compared to unloaded polymer depots: reduced the behavioral response
